The target in this experiment is T1, human PAH with the R408W mutation (Homo sapiens, UniProt P00439, R408W).
T1 construct: expressed in transfected cells
T1 sequence (P00439 1-452 R408W): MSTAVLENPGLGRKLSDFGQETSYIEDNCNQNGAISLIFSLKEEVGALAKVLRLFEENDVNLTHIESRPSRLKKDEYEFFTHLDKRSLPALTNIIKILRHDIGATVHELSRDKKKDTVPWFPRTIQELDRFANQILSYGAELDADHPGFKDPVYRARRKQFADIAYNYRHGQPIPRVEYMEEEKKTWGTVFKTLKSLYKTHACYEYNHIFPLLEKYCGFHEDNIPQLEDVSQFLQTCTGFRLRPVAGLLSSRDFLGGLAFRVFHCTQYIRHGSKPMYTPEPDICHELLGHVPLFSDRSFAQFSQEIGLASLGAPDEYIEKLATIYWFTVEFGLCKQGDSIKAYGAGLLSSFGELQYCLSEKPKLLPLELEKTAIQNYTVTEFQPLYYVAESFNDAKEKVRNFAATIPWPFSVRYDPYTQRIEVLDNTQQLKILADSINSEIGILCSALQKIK
Kind of experiment: Cell Based Phenylalanine Flux Assay. The following applies: A375 cells expressing human R408W PAH; 24 hrs compound incubation; 13C-Tyrosine by LC-MS; average where tested multiple times; read-out: AC50.

For `CC(C)(O)c1cc(C(=O)N2CCc3[nH]cnc3[C@H]2c2nc3c(F)cccc3s2)on1` [Example 2170, (S)-(4-(4-fluorobenzo[d]thiazol-2-yl)-6,7-dihydro-1H-imidazo[4,5-c]pyridin-5(4H)-yl)(3-(2-hydroxypropan-2-yl)isoxazol-5-yl)methanone], the concentration at half-maximal activity (AC50) – broadly, the midpoint of the concentration-response curve, whichever way the signal moves – was 1000 to 5000 nM.
The figure for `Cn1nc(C(F)F)nc1C(=O)N1CCc2[nH]cnc2[C@H]1c1nc2ccccc2s1` [Example 2171] is 1000 to 5000 nM; for `Cn1nc(C(F)F)nc1C(=O)N1CCc2[nH]cnc2[C@@H]1c1nc2ccccc2s1` [Example 2172, (R)-(4-(benzo[d]thiazol-2-yl)-6,7-dihydro-1H-imidazo[4,5-c]pyridin-5(4H)-yl)(3-(difluoromethyl)-1-methyl-1H-1,2,4-triazol-5-yl)methanone] it is > 5000 nM; for `Cc1ccc2sc([C@@H]3c4nc[nH]c4CCN3C(=O)c3cnco3)nc2c1` [Example 2173, (S)-(4-(5-methylbenzo[d]thiazol-2-yl)-6,7-dihydro-1H-imidazo[4,5-c]pyridin-5(4H)-yl)(oxazol-5-yl)methanone] it is 500 to 1000 nM.
The figure for `Cc1ccc2sc([C@H]3c4nc[nH]c4CCN3C(=O)c3cnco3)nc2c1` [Example 2174, (R)-(4-(5-methylbenzo[d]thiazol-2-yl)-6,7-dihydro-1H-imidazo[4,5-c]pyridin-5(4H)-yl)(oxazol-5-yl)methanone] is > 5000 nM.
With `Cc1ccc2nc([C@@H]3c4nc[nH]c4CCN3C(=O)c3cnco3)sc2c1` [Example 2175, (S)-(4-(6-methylbenzo[d]thiazol-2-yl)-6,7-dihydro-1H-imidazo[4,5-c]pyridin-5(4H)-yl)(oxazol-5-yl)methanone] the figure was 500 to 1000 nM; with `O=C(c1ocnc1-c1ccccc1)N1CCc2[nH]cnc2[C@H]1c1nc2c(F)cccc2s1` [Example 2177, (S)-(4-(4-fluorobenzo[d]thiazol-2-yl)-6,7-dihydro-1H-imidazo[4,5-c]pyridin-5(4H)-yl)(4-phenyloxazol-5-yl)methanone], 500 to 1000 nM; with `O=C(c1ocnc1-c1ccccc1)N1CCc2[nH]cnc2[C@@H]1c1nc2c(F)cccc2s1` [Example 2178, (R)-(4-(4-fluorobenzo[d]thiazol-2-yl)-6,7-dihydro-1H-imidazo[4,5-c]pyridin-5(4H)-yl)(4-phenyloxazol-5-yl)methanone], > 5000 nM.
With `Cc1cccc2nc([C@@H]3c4nc[nH]c4CCN3C(=O)c3cnco3)sc12` [Example 2179, (S)-(4-(7-methylbenzo[d]thiazol-2-yl)-6,7-dihydro-1H-imidazo[4,5-c]pyridin-5(4H)-yl)(oxazol-5-yl)methanone], the AC50 is < 500 nM.
The figure for `Cc1cccc2nc([C@H]3c4nc[nH]c4CCN3C(=O)c3cnco3)sc12` [Example 2180, (R)-(4-(7-methylbenzo[d]thiazol-2-yl)-6,7-dihydro-1H-imidazo[4,5-c]pyridin-5(4H)-yl)(oxazol-5-yl)methanone] is > 5000 nM.
With `CC(C)(C)c1ncoc1C(=O)N1CCc2[nH]cnc2[C@H]1c1nc2c(F)cccc2s1` [Example 2181] the figure was < 500 nM.
The figure for `CC(C)(C)c1ncoc1C(=O)N1CCc2[nH]cnc2[C@@H]1c1nc2c(F)cccc2s1` [Example 2182, (R)-(4-(tert-butyl)oxazol-5-yl)(4-(4-fluorobenzo[d]thiazol-2-yl)-6,7-dihydro-1H-imidazo[4,5-c]pyridin-5(4H)-yl)methanone] is 1000 to 5000 nM; for `O=C(c1oc(C2CC2)nc1C(F)(F)F)N1CCc2[nH]cnc2[C@H]1c1nc2c(F)cccc2s1` [Example 2183, (S)-(2-cyclopropyl-4-(trifluoromethyl)oxazol-5-yl)(4-(4-fluorobenzo[d]thiazol-2-yl)-1,4,6,7-tetrahydro-5H-imidazo[4,5-c]pyridin-5-yl)methanone] it is < 500 nM.
Consider `O=C(c1oc(C2CC2)nc1C(F)(F)F)N1CCc2[nH]cnc2[C@@H]1c1nc2c(F)cccc2s1` [Example 2184, (R)-(2-cyclopropyl-4-(trifluoromethyl)oxazol-5-yl)(4-(4-fluorobenzo[d]thiazol-2-yl)-1,4,6,7-tetrahydro-5H-imidazo[4,5-c]pyridin-5-yl)methanone], for which the AC50 was < 500 nM.
Regarding `O=C(c1oc(C2(O)CC2)nc1C(F)(F)F)N1CCc2[nH]cnc2[C@H]1c1nc2c(F)cccc2s1` [Example 2185, (S)-(4-(4-fluorobenzo[d]thiazol-2-yl)-1,4,6,7-tetrahydro-5H-imidazo[4,5-c]pyridin-5-yl)(2-(1-hydroxycyclopropyl)-4-(trifluoromethyl)oxazol-5-yl)methanone], the AC50 is < 500 nM.
With `O=C(c1oc(C2(O)CC2)nc1C(F)(F)F)N1CCc2[nH]cnc2[C@@H]1c1nc2c(F)cccc2s1` [Example 2186, (R)-(4-(4-fluorobenzo[d]thiazol-2-yl)-1,4,6,7-tetrahydro-5H-imidazo[4,5-c]pyridin-5-yl)(2-(1-hydroxycyclopropyl)-4-(trifluoromethyl)oxazol-5-yl)methanone] the figure was 1000 to 5000 nM; with “((4R)-4-(benzo[d]thiazol-2-yl)-3a,4,6,7,8,8a-hexahydroimidazo[4,5-c]azepin-5(1H)-yl)(4-cyclopropyloxazol-5-yl)methanone [Example 2168]”, 1000 to 5000 nM.
The figure for “((4R,7R)-4-(benzo[d]thiazol-2-yl)-7-methyl-6,7-dihydro-1H-imidazo[4,5- [Example 1587]” is 1000 to 5000 nM; for “(R)-2-((4-(6-bromo-1H-benzo[d]imidazol-2-yl)-6,7-dihydro-1H-imidazo[4,5-c]pyridin-5(4H)-yl)methyl)thiazole [Example 968]” it is 1000 to 5000 nM; for “(R)-2-((4-(6-fluoro-1H-benzo[d]imidazol-2-yl)-6,7-dihydro-1H-imidazo[4,5-c]pyridin-5(4H)-yl)methyl)thiazole [Example 972]” it is > 5000 nM.
The figure for “(R)-(4-(benzo[d]thiazol-2-yl)-6,7-dihydro-1H-imidazo[4,5-c]pyridin-5(4H)-yl)(2-(1-methyl-3-(trifluoromethyl)-1H-pyrazol-4-yl)thiazol-5-yl)methanone [Example 1390]” is 1000 to 5000 nM.
In the case of “(R)-(4-(benzo[d]thiazol-2-yl)-6,7-dihydro-1H-imidazo[4,5-c]pyridin-5(4H)-yl)(6-bromopyrazolo[1,5-a]pyridin-3-yl)methanone [Example 1046]”, the concentration at half-maximal activity (AC50) lay in the range of 1000 to 5000 nM.
The figure for “(R)-(4-bromothiazol-5-yl)(4-(4-fluorobenzo[d]thiazol-2-yl)-6,7-dihydro-1H-imidazo[4,5-c]pyridin-5(4H)-yl)methanone [Example 1618]” is 500 to 1000 nM.
As to “(R)-(5-(difluoromethyl)-1-methyl-1H-pyrazol-4-yl)(4-(4-fluorobenzo[d]thiazol-2-yl)-6,7-dihydro-1H-imidazo[4,5-c]pyridin-5(4H)-yl)methanone [Example 1744]”, the AC50 fell in the range of 1000 to 5000 nM.
As for “(R,Z)-1-(4-(1H-benzo[d]imidazol-2-yl)-6,7-dihydro-1H-imidazo[4,5-c]pyridin-5(4H)-yl)-2-(5-(prop-1-en-1-yl)-4-vinylthiazol-2-yl)ethanone [Example 904]”, the AC50 is > 5000 nM.
Take “(S)-(4-(benzo[d]thiazol-2-yl)-6,7-dihydro-1H)-imidazo[4,5-c]pyridin-5(4H)-yl)(6-bromopyrazolo[1,5-a]pyridin-3-yl)methanone [Example 1045]”: the AC50 lay in the range of 500 to 1000 nM.
With “(S)-(4-bromothiazol-5-yl)(4-(4- fluorobenzo[d]thiazol-2-yl)-6,7-dihydro-1H)- imidazo[4,5-c]pyridin-5(4H)-yl)methanone [Example 1617]” the figure was < 500 nM.

The values above are taken from US20250171438A1 (Agios Pharmaceuticals, Inc., priority 2022, published 2025).
